Reference: PubChem BioAssay AID1963847 (Molecular Pharmacology Branch, DTP, NCI, 2024)
Where “and” joins values, the source holds several entries; their conditions need not be identical. Identical values can stand only once.

Test system: 415267-285-R-J2-PDC complex spheroid viability
Assay: Anticancer human tumor 415267-285-R-J2-PDC patient-derived breast carcinoma cell line growth inhibition [POLQ]
Details: for viability, T/C: stronger effect = lower value; for IC50: curve of compound
Protocol: Multicellular complex tumor spheroid response to Polymerase (POL) inhibitors (novobiocin, ART-558, RP6685) in combination with a variety of drugs and investigational agents in selected tumor cell lines
The POL inhibitors (novobiocin, ART-558, and RP6685) were evaluated both individually and in combination with standard of care and investigational anticancer small molecules within a complex spheroid model of solid tumors. . Complex spheroids include a stromal component modeled by human endothelial cells (HUVEC) and fibroblasts modeled by human mesenchymal stem cells (MSCs). The concentration ranges selected for each drug and investigational agent were based upon clinically achievable concentrations if the clinical Cmax of the agent was known.
Compounds. The drugs and investigational agents: novobiocin (NSC847541), ART-558 (NSC835418), RP-6685 (NSC848927), peposertib (NSC802822), ceralasertib (NSC780249), elimusertib (NSC800525), camonsertib (NSC841442), AZD-1390 (NSC803789), olaparib (NSC753686), talazoparib (NSC767125), rucaparib (NSC756644), sotorasib (NSC818433), MRTX-1133 (NSC836407), SN-38 (NSC673596), topotecan (NSC609699), epotoside (NSC141540), doxorubicin (NSC123127), gemcitabine (NSC613327), 5-fluorouracil (NSC19893), paclitaxel (NSC125973), vemurafenib (NSC761431), MSA-2 (NSC828583), SN-011 (NSC837082), adavosertib (NSC754352), prexasertib (NSC758257), carboplatin (NSC241240) and oxaliplatin (NSC266046), were obtained from the National Cancer Institute (NCI) Developmental Therapeutics Program Chemical Repository (21). The FDA-approved anticancer drug set is available from the Developmental Therapeutics Program at https://dtp.cancer.gov/organization/dscb/obtaining/. […] The stock solutions were prepared in dimethyl sulfoxide (DMSO, Sigma-Aldrich, St. Louis, MO, cat. D2650), except for the platinum compounds which were prepared in saline (Quality Biological, Gaithersburg, MD, cat. 114-055-101), at 800-fold the tested concentration and stored at -70 degrees C prior to their use. All drugs and investigational agents were tested over a range starting from a high concentration at or near the clinical Cmax and decreasing in half-log increments. If the clinical Cmax for an agent had not been determined, the highest concentration tested was 10 microM, except for SN-38, which was tested at a high concentration of 1 microM.
Cell Culture. All cells were maintained in an incubator at 37 degrees C and 5% CO2 with 95% humidity. The PDC lines were cultured according to standard operating procedures established by the NCI PDMR (https://pdmr.cancer.gov). Table 3 of the manuscript, lists the cell lines along with the number of the three cell types plated to form the mct-spheroids and media for tumor cell growth. After thawing, all PDC lines, except 997537-175-T-J1-PDC and 415267-285-R-J2-PDC, were cultured in Matrigel-coated flasks prepared with a working solution of 1X Ham's F-12 nutrient mix, without supplementation (Thermo Fisher Scientific, cat. 11765054), 100 U/mL penicillin-streptomycin (Thermo Fisher Scientific, cat. 15140122), and 2.5% Matrigel (Corning Inc., Corning, NY, cat. 354248) for the first three passages. The two PDC lines 997537-175-T-J1-PDC and 415267-285-R-J2-PDC were cultured on uncoated flasks. The 857933-349-R-J2-PDC line was cultured in 6C/Colon 1B media containing advanced DMEM/F-12 (Thermo Fisher Scientific, cat. 12634028), 10 mM HEPES (Thermo Fisher Scientific, cat. 15630080), 1X GlutaMAX supplement (Thermo Fisher Scientific, cat. 35050061), 0.1 mg/mL primocin (InvivoGen, San Diego, CA, cat. ant-pm-2), 10% defined fetal bovine serum, heat inactivated (HyClone Laboratories Inc., Logan, UT, cat. SH30070.03HI), 50% L-WRN conditioned media (ATCC, cat. CRL-3276), 1.25 mM N-Acetyl-L-cysteine (Sigma-Aldrich, cat. A9165), 10 mM nicotinamide (Sigma-Aldrich, cat. N0636), 1X B-27 supplement (Thermo Fisher Scientific, cat. 17504044), 1X N-2 supplement (Thermo Fisher Scientific, cat. […]
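Further: spheroids exposed to compounds for one week before readout.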
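Wherever viability, T/C is given: luminescence used as stand-in measure of viable cells; 100% = DMSO vehicle control viability.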

Compound | viability, T/C (compound 0.0316 µM) | viability, T/C (compound 0.1 µM) | viability, T/C (compound 0.316 µM) | viability, T/C (compound 1 µM) | viability, T/C (compound 3.16 µM) | viability, T/C (compound 10 µM) | IC50 | viability, T/C (compound 0.00316 µM) | viability, T/C (compound 0.01 µM)
CCCS(=O)(=O)Nc1ccc(F)c(C(=O)c2c[nH]c3ncc(-c4ccc(Cl)cc4)cc23)c1F | 96.6% and 91.5% and 93.2% | 96.8% and 99.3% and 96.4% | 104% and 98% and 94.8% | 107% (2×) and 100% | 88.1% and 98.2% and 98% | 86.5% and 87.4% and 72% | > 10000 nM | – | –
COc1cccc(OCCCN)c1-c1cc(Nc2cnc(C#N)cn2)n[nH]1 | 6.92% and 6.25% and 7.08% | 6.87% and 6.41% and 5.7% | 6.1% and 4.51% and 5.49% | 4.67% and 5.09% and 3.72% | – | – | < 3.16 nM and 7.96 nM and 7.26 nM | 36.5% and 110% and 99.9% | –
C=CCn1c(=O)c2cnc(Nc3ccc(N4CCN(C)CC4)cc3)nc2n1-c1cccc(C(C)(C)O)n1 | 106% and 108% and 97.9% | 99.5% and 96.9% and 95.5% | 46.4% and 73.5% and 68.8% | 7.6% and 7.2% and 5.6% | – | – | 292 nM and 471 nM and 446 nM | 93.5% and 109% and 105% | 94% and 116% and 97.7%
